Measured values taken from patent publication US20230201144A1, “BIARYLSULFONAMIDES AND PHARMACEUTICAL COMPOSITIONS THEREOF, AND THEIR USE FOR TREATING FIBROTIC LUNG DISEASE” (NovoMedix, LLC, priority 2020, published 2023).
Where “and” joins values, the source holds several entries; their conditions need not be identical. Equal entries are not always repeated.

Tested on: Alpha smooth muscle actin (α-SMA) levels
Test: α-SMA levels by Western blot in TGF-β-treated normal human lung fibroblasts (headed Cell Proliferation Assay)
Format: cell-based
Details: 10 ng/mL TGF-β, 24 h; for Relative α-SMA 5 μM / Relative α-SMA 20 μM: Table 4; for Relative α-SMA 5 μM: compound 5 μM; for Relative α-SMA 20 μM: compound 20 μM
Experimental: Normal human lung fibroblasts were plated in a 6-well plate at 100,000 cells per well in 1 mL of DMEM supplemented with 10% FBS. The cells were incubated overnight at 37° C. under 5% CO2. The next day, the cells were serum starved (medium was removed and 1 mL of fresh DMEM without serum was added). The cells were incubated overnight.
The cells were treated with a test compound in DMEM, 5% FBS in the presence of 10 ng/mL TGF-β and incubated for 24 h. The cells were lysed with an M-PER buffer. Alpha smooth muscle actin (α-SMA) levels were determined by Western blot and normalized to 0-tubulin levels using cell signaling antibodies. Blots were probed with secondary antibodies from LI-COR® Biosciences and read using a scanner from LI-COR® Biosciences. Quantification was also done using a software from LI-COR® Biosciences. The results are shown in Tables 1 to 4 below, where the control (Ctrl) is the fibroblasts in the absence of TGF-β and a test compound.

[1] = single agent 5 μM, TGF-β alone = 1 (Tables 1-3)
[2] = single agent 10 μM, TGF-β alone = 1
[3] = single agent 20 μM, TGF-β alone = 1 (Tables 1-3)

SMILES	Relative α-SMA 5 μM	Relative α-SMA 20 μM	further results
CC(C)c1cc(C(C)C)c(S(=O)(=O)Nc2cc(OCCCCN)cc(C(F)(F)F)c2)c(C(C)C)c1 [A11, N-(3-(4-Aminobutoxy)-5-(trifluoromethyl)phenyl)-2,4,6-triisopropylbenzenesulfonamide]	0.85	–	–
Cc1cc(C(C)(C)C)cc(C)c1S(=O)(=O)Nc1cc(OCCCC#N)cc(C(F)(F)F)c1 [A9, 4-(Tert-butyl)-N-(3-(3-cyanopropoxy)-5-(trifluoromethyl)phenyl)-2,6-dimethylbenzenesulfonamide]	1.05	0.78	–
Cc1c(NS(=O)(=O)c2c(C(C)C)cc(C(C)C)cc2C(C)C)cc(C(F)(F)F)cc1C(F)(F)F [B4, N-(2-methyl-3,5-bis(trifluoromethyl)phenyl)-2,4,6-triisopropyl-benzene-sulfonamide]	–	–	Relative α-SMA (single agent 2 μM, normalized to tubulin, TGF-β alone = 1): 0.95; Relative α-SMA [1]: 0.69; Relative α-SMA [2]: 0.15
CCN(CC)c1cc(NS(=O)(=O)c2c(C(C)C)cc(C(C)C)cc2C(C)C)cc(C(F)(F)F)c1 [A8, N-(3-(Diethylamino)-5-(trifluoromethyl)phenyl)-2,4,6-triisopropylbenzenesulfonamide]	0.88	0.33	–
COc1cc(NS(=O)(=O)c2c(C)cc(C(C)(C)C)cc2C)cc(C(F)(F)F)c1 [A17, 4-(Tert-butyl)-N-(3-methoxy-5-(trifluoromethyl)phenyl)-2,6-dimethylbenzenesulfonamide]	0.46	–	–
Cc1cc(C(C)(C)C)cc(C)c1S(=O)(=O)Nc1cc(C2CCN(C)CC2)cc(C(F)(F)F)c1 [A15, 4-(Tert-butyl)-2,6-dimethyl-N-(3-(1-methylpiperidin-4-yl)-5-(trifluoromethyl)-phenyl)benzenesulfonamide]	0.31	–	–
COC(=O)c1ccc2c(c1)NC(=O)/C2=C(\Nc1ccc(N(C)C(=O)CN2CCN(C)CC2)cc1)c1ccccc1 [N, nintedanib, reference compound]	–	–	Relative α-SMA [1]: 0.82 and 0.92 and 0.97
CC(=O)Nc1cc(NS(=O)(=O)c2c(C(C)C)cc(C(C)C)cc2C(C)C)cc(C(F)(F)F)c1 [A7, N-(3-(Trifluoromethyl)-5-((2,4,6-triisopropylphenyl)sulfonamido)phenyl)-acetamide]	1.60	0.33	–
Cc1cc(C(C)(C)C)cc(C)c1S(=O)(=O)Nc1cc(OCCCCN)cc(C(F)(F)F)c1 [A10, N-(3-(4-Aminobutoxy)-5-(trifluoromethyl)phenyl)-4-(tert-butyl)-2,6-dimethylbenzenesulfonamide]	0.69	–	–
Cc1cc(NS(=O)(=O)c2c(C(C)C)cc(C(C)C)cc2C(C)C)cc(C(F)(F)F)c1 [A1, 2,4,6-Triisopropyl-N-(3-methyl-5-(trifluoromethyl)phenyl)benzenesulfonamide]	0.98	0.37	–
CC(C)c1cc(C(C)C)c(S(=O)(=O)Nc2cc(C(=O)O)cc(C(F)(F)F)c2)c(C(C)C)c1 [A3, 3-(Trifluoromethyl)-5-((2,4,6-triisopropylphenyl)sulfonamido)benzoic acid]	0.79	0.73	–
Cc1cc(C(C)(C)C)cc(C)c1S(=O)(=O)Nc1cc(CCCN(C)C)cc(C(F)(F)F)c1 [A13, 4-(Tert-butyl)-N-(3-(3-(dimethylamino)propyl)-5-(trifluoromethyl)phenyl)-2,6-dimethylbenzenesulfonamide]	0.29	–	–
Cc1ccc(=O)n(-c2ccccc2)c1 [P, pirfenidone, reference compound]	–	–	Relative α-SMA (single agent 200 μM, TGF-β alone = 1): 1.29 and 1.02
Cc1cc(C(C)(C)C)cc(C)c1S(=O)(=O)Nc1cc(Br)cc(C(F)(F)F)c1 [A16, N-(3-Bromo-5-(trifluoromethyl)phenyl)-4-(tert-butyl)-2,6-dimethylbenzenesulfonamide]	0.35	–	–
Cc1cc(C(C)(C)C)cc(C)c1S(=O)(=O)Nc1cc(OCCN(C)C)cc(C(F)(F)F)c1 [A12, 4-(Tert-butyl)-N-(3-(2-(dimethylamino)ethoxy)-5-(trifluoromethyl)phenyl)-2,6-dimethylbenzenesulfonamide]	0.37	–	–
Cc1cc(C(C)(C)C)cc(C)c1S(=O)(=O)Nc1cc(CCCN2CCOCC2)cc(C(F)(F)F)c1 [A14, 4-(Tert-butyl)-2,6-dimethyl-N-(3-(3-morpholinopropyl)-5-(trifluoromethyl)-phenyl)benzenesulfonamide]	0.53	–	–
Cc1c(Br)cc(C(F)(F)F)cc1NS(=O)(=O)c1c(C(C)C)cc(C(C)C)cc1C(C)C [A21, N-(3-Bromo-2-methyl-5-(trifluoromethyl)phenyl)-2,4,6-triisopropylbenzenesulfonamide]	0.45	–	–
Cc1cc(C(C)(C)C)cc(C)c1S(=O)(=O)Nc1cc(C(F)(F)F)cc(C(F)(F)F)c1 [B5, N-(3,5-bis(trifluoromethyl)phenyl)-4-(tert-butyl)-2,6-dimethylbenzene-sulfonamide]	–	–	Relative α-SMA [1]: 0.91; Relative α-SMA [2]: 0.75; Relative α-SMA [3]: 0.24
CC(C)c1cc(C(C)C)c(S(=O)(=O)Nc2cc(N)cc(C(F)(F)F)c2)c(C(C)C)c1 [A6, N-(3-Amino-5-(trifluoromethyl)phenyl)-2,4,6-triisopropylbenzenesulfonamide]	1.08	0.05	–
Cc1cc(C(C)(C)C)cc(C)c1S(=O)(=O)Nc1cc(O)cc(C(F)(F)F)c1 [A18, 4-(Tert-butyl)-N-(3-hydroxy-5-(trifluoromethyl)phenyl)-2,6-dimethylbenzenesulfonamide]	0.57	0.28	Relative α-SMA [1]: 1.26; Relative α-SMA [2]: 0.86; Relative α-SMA [3]: 0.06
Cc1c(NS(=O)(=O)c2c(C(C)C)cc(C(C)C)cc2C(C)C)cc(O)cc1C(F)(F)F [A20, N-(5-Hydroxy-2-methyl-3-(trifluoromethyl)phenyl)-2,4,6-triisopropylbenzenesulfonamide]	0.27	–	–
COc1cc(NS(=O)(=O)c2c(C(C)C)cc(C(C)C)cc2C(C)C)c(C)c(C(F)(F)F)c1 [A19, 2,4,6-Triisopropyl-N-(5-methoxy-2-methyl-3-(trifluoromethyl)phenyl)-benzenesulfonamide]	0.56	–	–
COC(=O)c1cc(NS(=O)(=O)c2c(C(C)C)cc(C(C)C)cc2C(C)C)cc(C(F)(F)F)c1 [A2, Methyl 3-(trifluoromethyl)-5-((2,4,6-triisopropylphenyl)sulfonamido)benzoate]	1.05	0.23	–
CCCCNC(=O)c1cc(NS(=O)(=O)c2c(C(C)C)cc(C(C)C)cc2C(C)C)cc(C(F)(F)F)c1 [A4, N-Butyl-3-(trifluoromethyl)-5-((2,4,6-triisopropylphenyl)sulfonamido)benzamide]	1.30	0.46	–
CC(C)c1cc(C(C)C)c(S(=O)(=O)Nc2cc(NC(=O)OC(C)(C)C)cc(C(F)(F)F)c2)c(C(C)C)c1 [A5, Tert-butyl (3-(trifluoromethyl)-5-((2,4,6-triisopropylphenyl)sulfonamido)-phenyl)carbamate]	0.95	0.21	–
Cc1cc(C(C)(C)C)cc(C)c1S(=O)(=O)Nc1cc(C2CCNCC2)cc(C(F)(F)F)c1 [A22, 4-(Tert-butyl)-2,6-dimethyl-N-(3-(piperidin-4-yl)-5-(trifluoromethyl)phenyl)-benzenesulfonamide]	0.21	0.12	–
